Results from article PMC11647895 (Journal of Medicinal Chemistry, 2024).

Experiments:
[1] = test system: Keap1-NRF2 nuclear translocation; format: cell-based; conditions: Nrf2 translocation assay, engineered U2OS cell line
[2] = Reactivity with glutathione in pH 7.4 phosphate buffer; format: physicochemical; conditions: 1 mM compound, 10 mM glutathione, 10% DMSO, 54 h, 37 °C
BTB domain of KEAP1 = BTB domain of KEAP1 (Homo sapiens, UniProt Q14145); experiment: Intact mass spectrometry, covalent adduct formation with KEAP1; conditions: intact MS / LC-MS
[3] = target: C151A mutant of KEAP1 BTB domain (Homo sapiens, UniProt Q14145, C151A); experiment: Intact mass spectrometry, covalent adduct formation with KEAP1 C151A; conditions: intact MS
[4] = test system: Nrf2 KO mouse embryonic fibroblast cells; experiment: ARE signal in Nrf2 KO cells
36 receptor Cerep panel = experiment: Cerep receptor panel screen; conditions: 10 μM, 36 receptors
KLHL26 BTB domain = target: T1, KLHL26 BTB domain (Homo sapiens, UniProt Q53HC5); experiment: LC-MS, covalent adduct formation with KLHL26; format: binding
T1 sequence (Q53HC5 34-161): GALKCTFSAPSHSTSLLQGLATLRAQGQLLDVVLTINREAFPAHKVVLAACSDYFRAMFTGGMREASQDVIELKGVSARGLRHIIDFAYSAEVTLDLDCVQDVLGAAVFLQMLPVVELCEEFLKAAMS

TK6 cells = experiment: DNA damage response; format: cell-based, human

Sequence of BTB domain of KEAP1 (Q14145 48-213): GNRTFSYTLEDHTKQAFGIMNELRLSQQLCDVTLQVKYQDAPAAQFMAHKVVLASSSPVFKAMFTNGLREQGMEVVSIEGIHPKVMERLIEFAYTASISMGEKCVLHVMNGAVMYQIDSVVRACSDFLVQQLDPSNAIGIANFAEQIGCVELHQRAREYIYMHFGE
Sequence of C151A mutant of KEAP1 BTB domain (Q14145 48-213 C151A): as the sequence (Q14145 48-213) above, with C104A counted along it

For “4-(2-Chlorophenyl)sulfonyl-2-ethylsulfonyl-5-(3-pyridyl)thiazole Hydrochloride [Compound 17]”, the “U2OS EC50” value [1] was “completely inactive”.
Work on `Cc1ccc(S(=O)(=O)c2nc(S(=O)(=O)c3ccccc3)sc2N2CCN(C)CC2)cc1` [Compound 2, 2-(Benzenesulfonyl)-5-(4-methylpiperazin-1-yl)-4-(p-tolylsulfonyl)thiazole] yielded a conversion with glutathione [2] of 30%.
In the case of `CCS(=O)(=O)c1nc(S(=O)(=O)c2ccccc2Cl)c(N2CCN(C)C(=O)C2)s1` [Compound 7, 4-[4-(2-Chlorophenyl)sulfonyl-2-ethylsulfonyl-thiazol-5-yl]-1-methyl-piperazin-2-one], the “covalent adduct formation with KEAP1 BTB” value (BTB domain of KEAP1) is reported as “a single adduct was formed”, the “covalent adduct formation with KEAP1 BTB C151A mutant” value [3] is reported as “no covalent adduct” and the ARE signal [4] is reported as “did not observe any of the ARE signal”. For the same compound, the off-target activity (36 receptor Cerep panel) was “did not observe any significant off-target activity”.
For `CCS(=O)(=O)c1nc(S(=O)(=O)c2ccccc2Cl)c(N2CCN(C)C(=O)[C@H]2C)s1` [Compound 23, (3R)-4-[4-(2-Chlorophenyl)sulfonyl-2-ethylsulfonyl-thiazol-5-yl]-1,3-dimethyl-piperazin-2-one], the “covalent adduct formation / binding to KLHL26 BTB domain” value (“covalent adduct formation / binding” for short) (KLHL26 BTB domain) was “no binding”.
With `CCS(=O)(=O)c1nc(S(=O)(=O)c2ccccc2C#N)c(N2CCN(C)C(=O)[C@H]2C)s1` [Compound 25, 2-[5-[(2R)-2,4-Dimethyl-3-oxo-piperazin-1-yl]-2-ethylsulfonyl-thiazol-4-yl]sulfonylbenzonitrile] the “covalent adduct formation / binding” value (KLHL26 BTB domain) was “no binding”.
With `CCP1(=O)CCN(c2sc(S(=O)(=O)CC)nc2S(=O)(=O)c2cccc(Cl)c2Cl)CC1` [Compound 27, 1-[4-(2,3-Dichlorophenyl)sulfonyl-2-ethylsulfonyl-thiazol-5-yl]-4-ethyl-1,4λ^5-azaphosphinane 4-Oxide] the “DDR (TK6) with S9” value (TK6 cells; with S9 metabolic activation) was “aneugen”, the “DDR (TK6)” value (TK6 cells; without S9) was “negative” and the “covalent adduct formation / binding” value (KLHL26 BTB domain) was “no binding”.
For `CC1(C)CC[C@]2(C(=O)O)CC[C@]3(C)[C@H](C(=O)C=C4[C@@]5(C)C=C(C#N)C(=O)C(C)(C)[C@@H]5CC[C@]43C)[C@@H]2C1` [bardoxolone], the EC50 (ARE (Nrf2 activation)) was 9.2 nM.
